Measurements: patent publication US11591341B2 (ALIGOS THERAPEUTICS, INC., priority 2019, dated 2023)

System: HBV
Assay: HBV-DNA Antiviral Assay Using HepG2.117 Cells (intracellular HBV DNA by qPCR)
Format: cell-based, hepatitis B virus (genotype D)
Conditions: Hepatitis B virus, HepG2.117
Description: The following assay procedure describes the HBV antiviral assay, using HepG2.117 cells, which carry a stably integrated genotype D HBV genome under the control of a Tet-off promoter, and intracellular HBV DNA quantification as endpoint. Cell viability is assessed in parallel by measuring the intracellular ATP content using ATPlite (Perkin Elmer).
On day 0, HepG2.117 cells (which are maintained in routine cell culture with doxycycline present in the medium at a final concentration of 1 μg/mL) were seeded in 96-well plates (white with clear bottom) at a density of 2.0×10^4 cells/well (0.1 mL/well) in medium without doxycycline to induce pgRNA transcription and subsequent formation of HBV particles. The cells were incubated at 37° C. and 5% CO2.
On day 1, medium was removed from each well, the test articles were diluted in culture medium without doxcycyline and 100 μL was added to cell culture wells (9 concentrations, 4-fold dilution). For each plate, 6 untreated (merely DMSO) wells were included. The final concentration of DMSO in the culture medium was 2%. Each plate was prepared in duplicate (one for HBV DNA extraction, one for ATPlite measurement). The cells were incubated at 37° C. and 5% CO2 for 3 days.
On day 4, cell viability was assessed using ATPlite and cell lysates were prepared for HBV DNA extraction and subsequent quantification by qPCR.
Medium was removed from each well and 100 μL of 0.33% NP-40 in H2O was added to each well. Plates were sealed, incubated at 4° C. for 5 mins, vortexed extensively and centrifuged briefly. Next, 35 μL of lysate was added to 65 μL QuickExtract DNA Extraction Solution (Epicentre) in a PCR plate for each well. PCR plate was incubated at 65° C. for 6 mins, 98° C. for 2 mins and finally cooled to 4° C. HBV DNA was then quantified by qPCR with HBV-specific primers and probes as specified in Table 3 using the Bio-Rad SSOAdvanced Universal Probes Supermix on a CFX96 machine (Bio-Rad). The PCR cycle program consisted of 95° C. for 3 mins, followed by 40 cycles at 95° C. for 10 sec and 60° C. for 30 sec.
A DNA standard was prepared by dilution of an IDT gBlock corresponding to the amplicon with concentrations ranging from 10^2 to 10^8 copies/input (i.e. per 4 μL) and used to generate a standard curve by plotting Cq values vs. HBV DNA standard concentration. The quantity of HBV DNA in each sample was determined by interpolating from the standard curve.
Cell viability was calculated as follows: % Cell viability=(luminescence value of test sample)/(average luminescence value of 2% DMSO control)×100%. HBV DNA inhibition was calculated as follows: 100−(HBV DNA copy number of test sample)/(average HBV DNA copy number of 2% DMSO control)×100%. No normalization to entecavir was required due to the excellent dynamic window of this assay. The CC50, EC50 and EC90 values were determined by dose-response curves fitted by GraphPad Prism using “log (agonist) vs. response—Variable slope”.

| SMILES | EC50 [nM] |
| --- | --- |
| O=C(NCc1ccc(OC(F)(F)F)cc1F)c1c2n(c(=O)n1-c1ccc(OCC(F)(F)F)cc1)CCN(C(=O)c1ccc(Br)c(Cl)c1)C2 [Example 284, 7-(4-bromo-3-chloro-benzoyl)-N-[[2-fluoro-4-(trifluoromethoxy)phenyl]methyl]-3-oxo-2-[4-(2,2,2-trifluoroethoxy)phenyl]-6,8-dihydro-5H-imidazo[1,5-a]pyrazine-1-carboxamide] | 500 to 5000 |
| O=C(NCc1ccccc1)c1c2n(c(=O)n1-c1ncccn1)CCN(C(=O)c1ccc(Cl)c(Cl)c1)C2 [Example 138, N-benzyl-7-(3,4-dichlorobenzoyl)-3-oxo-2-pyrimidin-2-yl-6,8-dihydro-5H-imidazo[1,5-a]pyrazine-1-carboxamide] | > 5000 |
| C[C@@H](NC(=O)c1c2n(c(=O)n1-c1ccc(OCC(F)(F)F)cc1)CCN(C(=O)c1ccc(Br)c(Cl)c1)C2)c1ccccc1F (stereo in doubt) [Example 262, 7-(4-bromo-3-chloro-benzoyl)-3-oxo-N-[rac-(1R)-1-(2-fluorophenyl)ethyl]-2-[4-(2,2,2-trifluoroethoxy)phenyl]-6,8-dihydro-5H-imidazo[1,5-a]pyrazine-1-carboxamide] | 100 to 500 |
| Cc1ccc(-n2c(C(=O)NCc3ccccc3)c3n(c2=O)CCN(C(=O)c2ccc(Cl)c(Cl)c2)C3)cc1 [Example 122, N-benzyl-7-(3,4-dichlorobenzoyl)-3-oxo-2-(p-tolyl)-6,8-dihydro-5H-imidazo[1,5-a]pyrazine-1-carboxamide] | 500 to 5000 |
| COc1ccc([C@H](C)NC(=O)c2c3n(c(=O)n2-c2ccc(OC4CC4)cc2)CC(C)N(C(=O)c2ccc(Br)c(Cl)c2)C3)cc1 (mixture of isomers) [Example 437, (6RS)-7-(4-bromo-3-chloro-benzoyl)-2-[4-(cyclopropoxy)phenyl]-N-[(1S)-1-(4-methoxyphenyl)ethyl]-6-methyl-3-oxo-6,8-dihydro-5H-imidazo[1,5-a]pyrazine-1-carboxamide] | 500 to 5000 |
| O=C(NCc1ccccc1)c1c2n(c(=O)n1-c1ccc(OCC(F)F)cc1)CCN(C(=O)c1ccc(Br)c(Cl)c1)C2 [Example 260, N-benzyl-7-(4-bromo-3-chloro-benzoyl)-2-[4-(2,2-difluoroethoxy)phenyl]-3-oxo-6,8-dihydro-5H-imidazo[1,5-a]pyrazine-1-carboxamide] | 500 to 5000 |
| C[C@H](c1ccccc1)N1C[C@H](O)Cn2c(c3n(c2=O)CCN(C(=O)c2ccc(Br)c(Cl)c2)C3)C1=O (stereo in doubt) [Example 203, (11SR)-4-(4-bromo-3-chloro-benzoyl)-11-hydroxy-13-[(1R)-1-phenylethyl]-4,7,9,13-tetrazatricyclo[7.5.0.0^2,7]tetradec-1-ene-8,14-dione] | 100 to 500 |
| COc1ccc(CNC(=O)c2c3n(c(=O)n2-c2ccc(-n4cccn4)cc2)CCN(C(=O)c2ccc(Br)c(Cl)c2)C3)c(F)c1 [Example 459, 7-(4-bromo-3-chloro-benzoyl)-N-[(2-fluoro-4-methoxy-phenyl)methyl]-3-oxo-2-(4-pyrazol-1-ylphenyl)-6,8-dihydro-5H-imidazo[1,5-a]pyrazine-1-carboxamide] | 100 to 500 |
| CC(NC(=O)c1c2n(c(=O)n1-c1ccc(OC3CC3)cc1)CCN(C(=O)c1ccc(Br)c(Cl)c1)C2)c1ccc(OCC(N)=O)cc1-n1cccn1 (racemic) [Example 379, 7-(4-bromo-3-chloro-benzoyl)-2-[4-(cyclopropoxy)phenyl]-3-oxo-N-[rac-(1R)-1-[4-(2-amino-2-oxo-ethoxy)-2-pyrazol-1-yl-phenyl]ethyl]-6,8-dihydro-5H-imidazo[1,5-a]pyrazine-1-carboxamide] | > 5000 |
| CC(C)Oc1ccc(-n2c(C(=O)NCc3ccccc3)c3n(c2=O)CCN(C(=O)c2ccc(Br)c(Cl)c2)C3)cc1 [Example 184, N-benzyl-7-(4-bromo-3-chloro-benzoyl)-2-(4-isopropoxyphenyl)-3-oxo-6,8-dihydro-5H-imidazo[1,5-a]pyrazine-1-carboxamide] | 100 to 500 |
